Patent US20090258030A1, “Materials and Methods for Improving Livestock Productivity” (priority 2006, published 2009)
Counter-ions that a name gives are not always drawn. Marks after values point to notes of the source that are not given here.

Key:
[1] = Carcass composition/appearance of fattening pigs (Example 3); type: in vivo, swine; details: 150 g cysteamine hydrochloride per ton of feed
Procedure: 72 piglets were divided evenly into control group and Cysteamine group. The control group was treated with basal diet while the Cysteamine group was treated with basal diet added with 150 g cysteamine hydrochloride per ton of feed. Upon reaching the market weight of 85-90 kg, five animals from each treatment were slaughtered after fasting for one day. During slaughter, the animals were stunned with a stunning gun, bled, dehaired and eviscerated. The carcass was split […] and then chilled for 24 hours prior to fabrication. The slaughter and the chilled carcass weights were recorded. The chilled carcass weight expressed as percentage of the slaughter weight represents the dressed yield. The wholesale and retail cuts of each animals were weighed and recorded. The values were expressed as the percentage of the live weight and of the chilled carcass weight.
The area of the longissimus dorsi (LD) muscle was measured on the 12th rib of the right part of the carcasses. This was done by tracing the outline of the whole LD muscle on acetate paper and the area was measured with the use of a grading method.
There were no significant interaction effects.

[2] = Effect of cysteamine hydrochloride on weaning piglets: growth, FCR, diarrhea (Example 2); type: in vivo, swine (D×L×M weanling piglets)
From the text: Total of 100 heads of unhealthy D×L×M weanling piglets (approx. 6.78 kg) were divided into 2 groups—Control group (50 heads) & Cysteamine group (50 heads). The Control group was fed with basal diet. […]

[3] = Cysteamine used to fatten pigs (Example 8); type: in vivo; details: 190 ppm
[4] = Daily weight gain and feed conversion rate of beef cattle (Example 5); type: in vivo, beef cattle (Ximenta'er hybridizing beef cattle)
Procedure: In the following example, the test animals were beef cattle (Ximenta'er hybridizing beef cattle). The experiment was performed at the Hebei Hengshui Geling Beef Cattle Raising Farm dur the period from Oct. 10 to Dec. 21, 2002. In total, 64 heads of around 350 kg Ximenta'er hybridizing beef cattle were selected and separated into 4 groups randomly according to the principle of equalizing age, weight, grace, fur/hair condition, etc. Each group had 16 heads of beef cattle. The Control Group, Test Group I, II & III were fed a composition comprising 0, 1.5, 3, 6 g/head/day of cysteamine HCl, respectively. As noted in Tables 8, 9, and 10 below, adding a cysteamine compound to the basal diet of beef cattle can increase daily weight gain.

[5] = Effect of cysteamine compound on crossbreed sheep (Example 6); type: in vivo
[6] = slaughter at market weight 85-90 kg
[7] = 90 g of cysteamine hydrochloride per ton of feed, after 30 days, vs control
[8] = D × L × M weanling piglets, 300 ppm, 30 days
[9] = D × L × M weanling piglets, 300 ppm, 30 days, 50 head
[10] = 900 g cysteamine HCl per tonnage of diet, after 35 days
[11] = 900 g/tonnage, 35 days, vs control
[12] = feed consumed, 900 g/tonnage, 35 days, 20 head

NCCS [Cysteamine Hydrochloride, cysteamine hydrochloride]
backfat vs pigs fed diet without cysteamine hydrochloride [1]: significantly thinner | dressing percentage, loin eye area, and lean:fat ratio vs pigs fed without cysteamine hydrochloride [1]: no significant differences | loin cut and lean trimmings as a percent of the live-weight vs pigs fed without cysteamine hydrochloride [1]: significantly higher | Dressing % [1, 6]: 69.012% | Lean:Fat Ratio [1, 6]: 0.105 | Loin Eye Area (sq.cm) [1, 6]: 4.850 sq.cm | Backfat Thickness (cm) ([1]; slaughter at market weight 85-90 kg, P < 0.05 vs non-cysteamine HCl): 1.91^a cm | decrease in feed conversion rate (FCR) [2, 7]: 5.56% | improvement in diarrhea condition [2, 7]: 43.24% | increase in average daily weight gain (ADG) [2, 7]: 12.83% | ADG: Improvement ([2]; 300 ppm, 30 days, vs control): +48 g/head | ADG: Improvement (%) ([2]; 300 ppm, 30 days, vs control): 12.83% | Daily feed consumption: Improvement ([2]; 300 ppm, 30 days, vs control): +44.2 g/head | Diarrhea: Improvement (%) ([2]; 300 ppm, 30 days, vs control): −43.24% | FCR: Improvement ([2]; 300 ppm, 30 days, vs control): −0.1 | FCR: Improvement (%) ([2]; 300 ppm, 30 days, vs control): −5.56% | Final Wt.: Improvement ([2]; 300 ppm, 30 days, vs control): +1.5 kg/head | Total feed consumption: Improvement ([2]; 300 ppm, 30 days, vs control): +66.3 kg | Total final weight: Improvement ([2]; 300 ppm, 30 days, vs control): +75 kg | Total weight gain: Improvement ([2]; 300 ppm, 30 days, vs control): +72.5 kg | Weight gain: Improvement ([2]; 300 ppm, 30 days, vs control): +1.45 kg/head | ADG (g/head) [2, 8]: 422 g/head | Daily feed consumption (g/head) [2, 8]: 717.4 g/head | FCR [2, 8]: 1.70 | Final Wt. (kg/head) [2, 8]: 19.46 kg/head | Weight gain (kg/head) [2, 8]: 12.66 kg/head | Total feed consumption [2, 9]: 1076.1 kg | Total final weight [2, 9]: 973 kg | Total weight gain [2, 9]: 633 kg | Diarrhea (head) ([2]; D × L × M weanling piglets, 300 ppm, 30 days, of 50 head): 21 head | ADG ([3]; from 68 kg to market (35 days)): 1182 g | Age ([3]; from 68 kg to market (35 days)): 187 days | Ave. backfat thickness (cm) ([3]; from 68 kg to market (35 days)): 2.1 cm | Back fat thickness (neck) (cm) ([3]; from 68 kg to market (35 days)): 3.0 cm | Back fat thickness, Hip (cm) ([3]; from 68 kg to market (35 days)): 1.4 cm | Back fat thickness, Middle part (cm) ([3]; from 68 kg to market (35 days)): 1.8 cm | Body weight after slaughtering ([3]; from 68 kg to market (35 days)): 86 kg | Body weight before slaughtering ([3]; from 68 kg to market (35 days)): 106 kg | FCR ([3]; from 68 kg to market (35 days)): 2.71 | Feed consumption ([3]; from 68 kg to market (35 days)): 103 kg | Loin eye diameter (cm) ([3]; from 68 kg to market (35 days)): 33.0 cm | ADG: Improvement ([3]; vs control): 125 g | ADG: Improvement (%) ([3]; vs control): 11.79% | Age: Improvement ([3]; vs control): -5 days | Age: Improvement (%) ([3]; vs control): −2.60% | Ave. backfat thickness: Improvement ([3]; vs control): −0.5 cm | Ave. backfat thickness: Improvement (%) ([3]; vs control): −18.42% | Back fat thickness (neck): Improvement ([3]; vs control): −0.6 cm | Back fat thickness (neck): Improvement (%) ([3]; vs control): −16.67% | Back fat thickness, Hip: Improvement ([3]; vs control): −0.2 cm | Back fat thickness, Hip: Improvement (%) ([3]; vs control): −12.50% | Back fat thickness, Middle part: Improvement ([3]; vs control): −0.6 cm | Back fat thickness, Middle part: Improvement (%) ([3]; vs control): −25.00% | Body weight after slaughtering: Improvement ([3]; vs control): 2 kg | Body weight after slaughtering: Improvement (%) ([3]; vs control): 2.38% | Body weight before slaughtering: Improvement ([3]; vs control): 2 kg | Body weight before slaughtering: Improvement (%) ([3]; vs control): 1.92% | FCR: Improvement ([3]; vs control): −0.26 | FCR: Improvement (%) ([3]; vs control): −8.80% | Feed consumption: Improvement ([3]; vs control): -4 kg | Feed consumption: Improvement (%) ([3]; vs control): −3.74% | Loin eye diameter: Improvement ([3]; vs control): 2.5 cm | Loin eye diameter: Improvement (%) ([3]; vs control): 8.20% | daily weight gain ([4]; Test Group III: 6 g/head/day, p<0.05 vs Control, Test Group I & II): 1.217 kg | Feed Conversion Rate (FCR): Concentrated feed ([4]; Test I: 1.5 g/head/day): 3.54 | Feed Conversion Rate (FCR): Corn Silage ([4]; Test I: 1.5 g/head/day): 14.14 | Feed Conversion Rate (FCR): Raw Grass ([4]; Test I: 1.5 g/head/day): 1.21 | Final Wt. ([4]; Test I: 1.5 g/head/day): 423.8 kg | Feed Conversion Rate (FCR): Concentrated feed ([4]; Test II: 3 g/head/day): 3.70^a | Feed Conversion Rate (FCR): Corn Silage ([4]; Test II: 3 g/head/day): 14.42^a | Feed Conversion Rate (FCR): Raw Grass ([4]; Test II: 3 g/head/day): 1.27^a | Final Wt. ([4]; Test II: 3 g/head/day): 420.5 kg | Feed Conversion Rate (FCR): Concentrated feed ([4]; Test III: 6 g/head/day): 3.09^b | Feed Conversion Rate (FCR): Corn Silage ([4]; Test III: 6 g/head/day): 12.87^b | Feed Conversion Rate (FCR): Raw Grass ([4]; Test III: 6 g/head/day): 1.06^a | Final Wt. ([4]; Test III: 6 g/head/day): 432.7 kg | amount of silage necessary in raising the sheep [5, 10]: reduction | weight (ADG) vs control [5, 10]: statistically significant increase | ADG (g/head/day) ([5]; 900 g/tonnage, 35 days): 82.29 g/head/day | Final weight (kg/head) ([5]; 900 g/tonnage, 35 days): 29.59 kg/head | Weight gain (kg/head) ([5]; 900 g/tonnage, 35 days): 2.88 kg/head | Total feed consumption ([5]; 900 g/tonnage, 35 days, 20 head): 1001.2 kg | ADG: Improvement (%) [5, 11]: 46.2% | Silage: Improvement (%) [5, 11]: −5.14% | Weight gain: Improvement (%) [5, 11]: 46.2% | Concentrate [5, 12]: 245 kg | Hay [5, 12]: 350.0 kg | Silage [5, 12]: 406.2 kg
